Assay results taken from the supplement of paper PMC10307832.

Assays:
Test in all cases: relative viability (nuclei count vs DMSO), 5 days (fraction); higher = more cells survive
HCC-44 = test system: HCC-44
Method in brief: (§1)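 Nuclei were stained with Hoechst during a one-step fixation (final 0.05% Triton X-100, 1% formaldehyde, 1 ug/ml Hoechst) carried out 5 days after dosing, then counted on 4× images. The cells, lung cancer lines in 1536-well plates, had been dosed by pin tool the day after seeding with one drug alone or a fixed anchor-drug dose plus five library-drug doses (not always all listed) in √10 steps. Relative viability is the nuclei count in treated wells divided by that in vehicle wells, and each value is the median of duplicate plates.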

SW 1573 = test system: SW 1573
Method in brief: as §1

LC-2-ad = test system: LC-2-ad
Method in brief: as §1

NCI-H2126 = test system: NCI-H2126
Method in brief: as §1

NCI-H650 = test system: NCI-H650
Method in brief: as §1

PC-14 = test system: PC-14
Method in brief: as §1

UMC-11 = test system: UMC-11
Method in brief: as §1

NCI-H1915 = test system: NCI-H1915
Method in brief: as §1

NCI-H1355 = test system: NCI-H1355
Method in brief: as §1

NCI-H1651 = test system: NCI-H1651
Method in brief: as §1

EPLC-272H = test system: EPLC-272H
Method in brief: as §1

NCI-H2085 = test system: NCI-H2085
Method in brief: as §1

HOP-62 = test system: HOP-62
Method in brief: as §1

HCC-15 = test system: HCC-15
Method in brief: as §1

ABC-1 = test system: ABC-1
Method in brief: as §1

LU99A = test system: LU99A
Method in brief: as §1

NCI-H838 = test system: NCI-H838
Method in brief: as §1

NCI-H2347 = test system: NCI-H2347
Method in brief: as §1

HARA = test system: HARA
Method in brief: as §1

NCI-H1993 = test system: NCI-H1993
Method in brief: as §1

NCI-H2023 = test system: NCI-H2023
Method in brief: as §1

COR-L23 = test system: COR-L23
Method in brief: as §1

Nc1ccn([C@@H]2O[C@H](CO)[C@@H](O)[C@@H]2O)c(=O)n1 [Cytarabine] + C[C@]1(O)C[C@@H](c2nc(-c3ccc4ccc(-c5ccccc5)nc4c3)c3c(N)nccn32)C1 [Linsitinib] (partner 1 µM)
relative viability (HCC-44; first compound 0.005 µM): 0.675 | relative viability (HCC-44; first compound 0.01581 µM): 0.664 | relative viability (HCC-44; first compound 0.05 µM): 0.384 | relative viability (HCC-44; first compound 0.1581 µM): 0.48 | relative viability (HCC-44; first compound 0.5 µM): 0.397 | relative viability (SW 1573; first compound 0.005 µM): 0.831 | relative viability (SW 1573; first compound 0.01581 µM): 0.664 | relative viability (SW 1573; first compound 0.05 µM): 0.621 | relative viability (SW 1573; first compound 0.1581 µM): 0.369 | relative viability (SW 1573; first compound 0.5 µM): 0.149 | relative viability (LC-2-ad; first compound 0.005 µM): 0.851 | relative viability (LC-2-ad; first compound 0.01581 µM): 0.79 | relative viability (LC-2-ad; first compound 0.05 µM): 0.677 | relative viability (LC-2-ad; first compound 0.1581 µM): 0.442 | relative viability (LC-2-ad; first compound 0.5 µM): 0.223 | relative viability (NCI-H2126; first compound 0.005 µM): 0.71 | relative viability (NCI-H2126; first compound 0.01581 µM): 0.661 | relative viability (NCI-H2126; first compound 0.05 µM): 0.647 | relative viability (NCI-H2126; first compound 0.1581 µM): 0.486 | relative viability (NCI-H2126; first compound 0.5 µM): 0.474 | relative viability (NCI-H650; first compound 0.005 µM): 0.763 | relative viability (NCI-H650; first compound 0.01581 µM): 0.475 | relative viability (NCI-H650; first compound 0.05 µM): 0.379 | relative viability (NCI-H650; first compound 0.1581 µM): 0.209 | relative viability (NCI-H650; first compound 0.5 µM): 0.234 | relative viability (PC-14; first compound 0.005 µM): 0.967 | relative viability (PC-14; first compound 0.01581 µM): 0.862 | relative viability (PC-14; first compound 0.05 µM): 0.761 | relative viability (PC-14; first compound 0.1581 µM): 0.436 | relative viability (PC-14; first compound 0.5 µM): 0.464 | relative viability (UMC-11; first compound 0.005 µM): 0.637 | relative viability (UMC-11; first compound 0.01581 µM): 0.637 | relative viability (UMC-11; first compound 0.05 µM): 0.424 | relative viability (UMC-11; first compound 0.1581 µM): 0.246 | relative viability (UMC-11; first compound 0.5 µM): 0.226 | relative viability (NCI-H1915; first compound 0.005 µM): 1.1 | relative viability (NCI-H1915; first compound 0.01581 µM): 0.979 | relative viability (NCI-H1915; first compound 0.05 µM): 0.842 | relative viability (NCI-H1915; first compound 0.1581 µM): 0.54 | relative viability (NCI-H1915; first compound 0.5 µM): 0.388 | relative viability (NCI-H1355; first compound 0.005 µM): 0.788 | relative viability (NCI-H1355; first compound 0.01581 µM): 0.8 | relative viability (NCI-H1355; first compound 0.05 µM): 0.627 | relative viability (NCI-H1355; first compound 0.1581 µM): 0.451 | relative viability (NCI-H1355; first compound 0.5 µM): 0.32 | relative viability (NCI-H1651; first compound 0.005 µM): 0.916 | relative viability (NCI-H1651; first compound 0.01581 µM): 0.98 | relative viability (NCI-H1651; first compound 0.05 µM): 1.11 | relative viability (NCI-H1651; first compound 0.1581 µM): 0.468 | relative viability (NCI-H1651; first compound 0.5 µM): 0.327 | relative viability (EPLC-272H; first compound 0.005 µM): 0.883 | relative viability (EPLC-272H; first compound 0.01581 µM): 0.834 | relative viability (EPLC-272H; first compound 0.05 µM): 0.945 | relative viability (EPLC-272H; first compound 0.1581 µM): 0.522 | relative viability (EPLC-272H; first compound 0.5 µM): 0.532 | relative viability (NCI-H2085; first compound 0.005 µM): 0.677 | relative viability (NCI-H2085; first compound 0.01581 µM): 0.89 | relative viability (NCI-H2085; first compound 0.05 µM): 0.859 | relative viability (NCI-H2085; first compound 0.1581 µM): 0.585 | relative viability (NCI-H2085; first compound 0.5 µM): 0.55 | relative viability (HOP-62; first compound 0.005 µM): 0.781 | relative viability (HOP-62; first compound 0.01581 µM): 0.666 | relative viability (HOP-62; first compound 0.05 µM): 0.257 | relative viability (HOP-62; first compound 0.1581 µM): 0.124 | relative viability (HOP-62; first compound 0.5 µM): 0.0827 | relative viability (HCC-15; first compound 0.005 µM): 0.902 | relative viability (HCC-15; first compound 0.01581 µM): 0.912 | relative viability (HCC-15; first compound 0.05 µM): 0.903 | relative viability (HCC-15; first compound 0.1581 µM): 0.72 | relative viability (HCC-15; first compound 0.5 µM): 0.585 | relative viability (ABC-1; first compound 0.005 µM): 0.699 | relative viability (ABC-1; first compound 0.01581 µM): 0.99 | relative viability (ABC-1; first compound 0.05 µM): 0.909 | relative viability (ABC-1; first compound 0.1581 µM): 0.71 | relative viability (ABC-1; first compound 0.5 µM): 0.487 | relative viability (LU99A; first compound 0.005 µM): 0.621 | relative viability (LU99A; first compound 0.01581 µM): 0.577 | relative viability (LU99A; first compound 0.05 µM): 0.561 | relative viability (LU99A; first compound 0.1581 µM): 0.508 | relative viability (LU99A; first compound 0.5 µM): 0.47 | relative viability (NCI-H838; first compound 0.005 µM): 1.07 | relative viability (NCI-H838; first compound 0.01581 µM): 1.01 | relative viability (NCI-H838; first compound 0.05 µM): 0.875 | relative viability (NCI-H838; first compound 0.1581 µM): 0.418 | relative viability (NCI-H838; first compound 0.5 µM): 0.295 | relative viability (NCI-H2347; first compound 0.005 µM): 1.02 | relative viability (NCI-H2347; first compound 0.01581 µM): 0.932 | relative viability (NCI-H2347; first compound 0.05 µM): 0.822 | relative viability (NCI-H2347; first compound 0.1581 µM): 0.32 | relative viability (NCI-H2347; first compound 0.5 µM): 0.649 | relative viability (HARA; first compound 0.005 µM): 0.851 | relative viability (HARA; first compound 0.01581 µM): 0.608 | relative viability (HARA; first compound 0.05 µM): 0.396 | relative viability (HARA; first compound 0.1581 µM): 0.174 | relative viability (HARA; first compound 0.5 µM): 0.0936 | relative viability (NCI-H1993; first compound 0.005 µM): 0.703 | relative viability (NCI-H1993; first compound 0.01581 µM): 0.795 | relative viability (NCI-H1993; first compound 0.05 µM): 0.672 | relative viability (NCI-H1993; first compound 0.1581 µM): 0.539 | relative viability (NCI-H1993; first compound 0.5 µM): 0.471 | relative viability (NCI-H2023; first compound 0.005 µM): 0.492 | relative viability (NCI-H2023; first compound 0.01581 µM): 0.302 | relative viability (NCI-H2023; first compound 0.05 µM): 0.149 | relative viability (NCI-H2023; first compound 0.1581 µM): 0.0967 | relative viability (NCI-H2023; first compound 0.5 µM): 0.0876 | relative viability (COR-L23; first compound 0.005 µM): 0.787 | relative viability (COR-L23; first compound 0.01581 µM): 0.806 | relative viability (COR-L23; first compound 0.05 µM): 0.552 | relative viability (COR-L23; first compound 0.1581 µM): 0.159 | relative viability (COR-L23; first compound 0.5 µM): 0.122
